Biological target: T1, HPK1 (Homo sapiens, UniProt Q92918)
T1 construct: A HiBiT tag was introduced by CRISPR on the N terminus of HPK1 in Jurkat cells; host or cells: Jurkat cells (ATCC TIB-152), monoclonal line with CRISPR knock-in of HiBiT at the endogenous HPK1 locus
Assay: HPK1 Cellular HiBit Degradation Assay
Format: cell-based
Conditions: HiBiT HPK1 Jurkat cells, 24 hrs; for DC50: concentration at which 50% of HPK1 was remaining, read-out: DC50 Category; for Dmax: Jurkat, read-out: Dmax Category
Procedure, shortened: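 Degraders are dosed in an 11-point series (10 uM to 0.1 nM final) onto Jurkat cells carrying an N-terminal HiBiT tag on endogenous HPK1. After 24 hrs at 37° C, lysis-based HiBiT luminescence quantifies remaining HPK1 relative to vehicle, and curve fitting gives DC50 and Dmax.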

[1] = maximum degradation vs DMSO vehicle control

T1 sequence (Q92918 whole entry): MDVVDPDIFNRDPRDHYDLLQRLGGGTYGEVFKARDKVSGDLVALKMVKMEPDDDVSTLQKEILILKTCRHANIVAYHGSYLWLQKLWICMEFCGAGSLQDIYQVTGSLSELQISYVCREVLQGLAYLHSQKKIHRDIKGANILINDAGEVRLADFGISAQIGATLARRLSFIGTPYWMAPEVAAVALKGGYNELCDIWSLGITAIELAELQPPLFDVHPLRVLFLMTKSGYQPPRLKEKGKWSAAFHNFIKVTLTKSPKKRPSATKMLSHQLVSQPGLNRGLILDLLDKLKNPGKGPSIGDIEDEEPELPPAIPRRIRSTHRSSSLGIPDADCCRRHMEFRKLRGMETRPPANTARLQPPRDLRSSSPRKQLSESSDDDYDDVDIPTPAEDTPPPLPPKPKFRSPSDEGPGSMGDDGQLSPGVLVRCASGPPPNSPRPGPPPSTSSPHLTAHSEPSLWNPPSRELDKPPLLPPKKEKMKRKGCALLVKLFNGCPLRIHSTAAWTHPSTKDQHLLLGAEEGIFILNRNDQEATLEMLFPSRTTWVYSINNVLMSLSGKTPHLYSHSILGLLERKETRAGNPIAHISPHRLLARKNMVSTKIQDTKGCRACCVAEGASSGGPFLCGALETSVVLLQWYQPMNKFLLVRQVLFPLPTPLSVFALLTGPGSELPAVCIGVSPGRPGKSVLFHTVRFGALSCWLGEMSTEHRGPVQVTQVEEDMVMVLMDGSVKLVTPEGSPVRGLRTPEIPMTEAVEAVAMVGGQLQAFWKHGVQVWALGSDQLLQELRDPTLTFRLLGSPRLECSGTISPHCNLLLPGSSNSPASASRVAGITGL

| Structure (SMILES) | DC50 | Dmax [1] | Dmax Category [1] |
| --- | --- | --- | --- |
| CC(C)n1cnc2cc(-c3ccc4c(c3)N([C@H]3C[C@@H](N5CCCCC5)C3)C(=O)C43CCN(C(=O)C4CC5CCC(C4)N5C(=O)C4CCN(c5ccc(C6CCC(=O)NC6=O)cc5)CC4)CC3)nc(NC3CC3)c21 (mixture of isomers) [Example 289, (3RS)-3-(4-{4-[3-({6-[4-(cyclopropylamino)-3-(propan-2-yl)-3H-imidazo[4,5-c]pyridin-6-yl]-2-oxo-1-[(1S,3S)-3-(piperidin-1-yl)cyclobutyl]-1,2-dihydrospiro[indole-3,4′-piperidin]-1′-yl}carbonyl)-8-azabicyclo[3.2.1]Octane-8-carbonyl]piperidin-1-yl}phenyl)piperidine-2,6-dione] | < 100 nM | 70 to 85% |  |
| CC(C)n1cnc2cc(-c3ccc4c(c3)N([C@H]3C[C@@H](N5CCCCC5)C3)C(=O)C43CCN(C(=O)[C@@H]4CCN(C(=O)[C@H]5CC[C@H](Oc6ccc(C7CCC(=O)NC7=O)cn6)CC5)C4)CC3)nc(NC3CC3)c21 (mixture of isomers) [Example 16, (3RS)-3-(6-{[(1R,4R)-4-[(3R)-3-({6-[4-(cyclopropylamino)-3-(propan-2-yl)-3H-imidazo[4,5-c]pyridin-6-yl]-2-oxo-1-[(1S,3S)-3-(piperidin-1-yl)cyclobutyl]-1,2-dihydrospiro[indole-3,4′-piperidin]-1′-yl}carbonyl)pyrrolidine-1-carbonyl]cyclohexyl]oxy}pyridin-3-yl)piperidine-2,6-dione] | 500 to 1000 nM | 70 to 85% |  |
| CC(C)n1cnc2cc(-c3ccc4c(c3)N(C3CC(N5CCCCC5)C3)C(=O)C43CCN(C(=O)C4CCC(C(=O)N5CCC(COc6ccc(C7CCC(=O)NC7=O)cc6)CC5)CC4)CC3)nc(NC3CC3)c21 (racemic) [Example 230, (3RS)-3-[4-({1-[(1R,4R)-4-({6-[4-(cyclopropylamino)-3-(propan-2-yl)-3H-imidazo[4,5-c]pyridin-6-yl]-2-oxo-1-[(1S,3S)-3-(piperidin-1-yl)cyclobutyl]-1,2-dihydrospiro[indole-3,4′-piperidin]-1′-yl}carbonyl)cyclohexanecarbonyl]piperidin-4-yl}methoxy)phenyl]piperidine-2,6-dione] | < 100 nM |  | C (C: >50%-<70%) |
| CC(C)n1cnc2cc(-c3ccc4c(c3)N([C@H]3C[C@@H](N5CCCCC5)C3)C(=O)C43CCN(C(=O)C4[C@@H]5C[C@H]4CN(C(=O)[C@H]4CC[C@H](Oc6ccc(C7CCC(=O)NC7=O)cc6)CC4)C5)CC3)nc(NC3CC3)c21 (stereo partly drawn) [Example 238, 3-(4-(((1R,4R)-4-((1R,5S,6S)-6-(6-(4-(cyclopropylamino)-3-isopropyl-3H-imidazo[4,5-c]pyridin-6-yl)-2-oxo-1-((1S,3S)-3-(piperidin-1-yl)cyclobutyl)spiro[indoline-3,4′-piperidine]-1′-carbonyl)-3-azabicyclo[3.1.1]heptane-3-carbonyl)cyclohexyl)oxy)phenyl)piperidine-2,6-dione] | < 100 nM | > 85% |  |
| CC(C)n1cnc2cc(-c3ccc4c(c3)N([C@H]3C[C@@H](N5CCCCC5)C3)C(=O)C43CCN(C(=O)C4CCN(C(=O)N5CCC(c6ccc(C7CCC(=O)NC7=O)cn6)CC5)CC4)CC3)nc(Nc3ccccc3F)c21 (mixture of isomers) [Example 97, (3RS)-3-[6-(1-{4-[(6-{4-[(2-fluorophenyl)amino]-3-(propan-2-yl)-3H-imidazo[4,5-c]pyridin-6-yl}-2-oxo-1-[(1S,3S)-3-(piperidin-1-yl)cyclobutyl]-1,2-dihydrospiro[indole-3,4′-piperidin]-1′-yl)carbonyl]piperidine-1-carbonyl}piperidin-4-yl)pyridin-3-yl]piperidine-2,6-dione] | 500 to 1000 nM | 50 to 70% |  |
| CC(C)n1cnc2cc(-c3ccc4c(c3)N([C@H]3C[C@@H](N5CCCCC5)C3)C(=O)C43CCN(C(=O)C4(C)CCN(C(=O)C5CCN(c6ccc(C7CCC(=O)NC7=O)cc6)CC5)CC4)CC3)nc(Nc3ccccc3F)c21 (mixture of isomers) [Example 110, (3RS)-3-[4-(4-{4-[(6-{4-[(2-fluorophenyl)amino]-3-(propan-2-yl)-3H-imidazo[4,5-c]pyridin-6-yl}-2-oxo-1-[(1S,3S)-3-(piperidin-1-yl)cyclobutyl]-1,2-dihydrospiro[indole-3,4′-piperidin]-1′-yl)carbonyl]-4-methylpiperidine-1-carbonyl}piperidin-1-yl)phenyl]piperidine-2,6-dione] | < 100 nM | > 85% |  |
| CC(C)n1cnc2cc(-c3ccc4c(c3)N([C@H]3C[C@@H](N5CCCCC5)C3)C(=O)C43CCN(C(=O)[C@H]4CC[C@H](C(=O)N5CCC(N(C)c6ccc(C7CCC(=O)NC7=O)cc6)CC5)CC4)CC3)nc(Nc3ccccc3F)c21 (mixture of isomers) [Example 135, (3RS)-3-{4-[methyl({1-[(1R,4R)-4-[(6-{4-[(2-fluorophenyl)amino]-3-(propan-2-yl)-3H-imidazo[4,5-c]pyridin-6-yl}-2-oxo-1-[(1S,3S)-3-(piperidin-1-yl)cyclobutyl]-1,2-dihydrospiro[indole-3,4′-piperidin]-1′-yl)carbonyl]cyclohexanecarbonyl]piperidin-4-yl})amino]phenyl}piperidine-2,6-dione] | < 100 nM | 70 to 85% |  |
| CC(C)n1cnc2cc(-c3ccc4c(c3)N([C@H]3C[C@@H](N5CCCCC5)C3)C(=O)C43CCN(C(=O)c4ccc(C(=O)N5CCN(c6ccc7c(c6)C(=O)N(C6CCC(=O)NC6=O)C7=O)CC5)cc4)CC3)nc(Nc3ccccc3F)c21 (mixture of isomers) [Example 41, 2-[(3RS)-2,6-dioxopiperidin-3-yl]-5-(4-{4-[(6-{4-[(2-fluorophenyl)amino]-3-(propan-2-yl)-3H-imidazo[4,5-c]pyridin-6-yl}-2-oxo-1-[(1S,3S)-3-(piperidin-1-yl)cyclobutyl]-1,2-dihydrospiro[indole-3,4′-piperidin]-1′-yl)carbonyl]benzoyl}piperazin-1-yl)-2,3-dihydro-1H-isoindole-1,3-dione] | 100 to 500 nM | > 85% |  |

Now from value to compound, other results behind:

| DC50 | Dmax [1] | Structure (SMILES) | Dmax Category [1] |
| --- | --- | --- | --- |
| 100 to 500 nM | 70 to 85% | Cc1nc(N2CCC(C(=O)N3CCC(C)(C(=O)N4CCC5(CC4)C(=O)N([C@H]4C[C@@H](N6CCCCC6)C4)c4cc(-c6cc7ncn(C(C)C)c7c(Nc7ccccc7F)n6)ccc45)CC3)CC2)ccc1C1CCC(=O)NC1=O (mixture of isomers) [Example 157, (3RS)-3-[6-(4-{4-[(6-{4-[(2-fluorophenyl)amino]-3-(propan-2-yl)-3H-imidazo[4,5-c]pyridin-6-yl}-2-oxo-1-[(1S,3S)-3-(piperidin-1-yl)cyclobutyl]-1,2-dihydrospiro[indole-3,4′-piperidin]-1′-yl)carbonyl]-4-methylpiperidine-1-carbonyl}piperidin-1-yl)-2-Methylpyridin-3-yl]piperidine-2,6-dione] |  |
| 100 to 500 nM | 70 to 85% | CC(C)n1cnc2cc(-c3ccc4c(c3)N([C@H]3C[C@@H](N5CCC[C@H](F)C5)C3)C(=O)C43CCN(C(=O)C4(C)CCN(C(=O)C5CCN(c6ccc(C7CCC(=O)NC7=O)cc6)CC5)CC4)CC3)nc(NC3CC3)c21 (mixture of isomers) [Example 198, (3RS)-3-(4-{4-[4-({6-[4-(cyclopropylamino)-3-(propan-2-yl)-3H-imidazo[4,5-c]pyridin-6-yl]-2-oxo-1-[(1S,3S)-3-[(3S)-3-fluoropiperidin-1-yl]cyclobutyl]-1,2-dihydrospiro[indole-3,4′-piperidin]-1′-yl}carbonyl)-4-methylpiperidine-1-carbonyl]piperidin-1-yl}phenyl)piperidine-2,6-dione] |  |
| 100 to 500 nM | 70 to 85% | CC(C)n1cnc2cc(-c3ccc4c(c3)N([C@H]3C[C@@H](N5CCCCC5)C3)C(=O)C43CCN(C(=O)C4(C)CCN(C(=O)C5CCN(c6ccc(C7CCC(=O)NC7=O)cn6)CC5)CC4)CC3)nc(N(C)C3CC3)c21 (stereo partly drawn) [Example 171, 3-[6-(4-{4-[(6-{4-[cyclopropyl(methyl)amino]-3-(propan-2-yl)-3H-imidazo[4,5-c]pyridin-6-yl}-2-oxo-1-[(1S,3S)-3-(piperidin-1-yl)cyclobutyl]-1,2-dihydrospiro[indole-3,4′-piperidin]-1′-yl)carbonyl]-4-methylpiperidine-1-carbonyl}piperidin-1-yl)pyridin-3-yl]piperidine-2,6-dione] |  |
| < 100 nM | 70 to 85% | CC(C)n1cnc2cc(-c3ccc4c(c3)N([C@H]3C[C@@H](N5CCCCC5)C3)C(=O)C43CCN(C(=O)C4CCN(C(=O)C5CCN(c6ccc(C7CCC(=O)NC7=O)cn6)CC5)CC4(F)F)CC3)nc(NC3CC3)c21 (mixture of isomers) [Example 273, (3RS)-3-(6-{4-[4-({6-[4-(cyclopropylamino)-3-(propan-2-yl)-3H-imidazo[4,5-c]pyridin-6-yl]-2-oxo-1-[(1S,3S)-3-(piperidin-1-yl)cyclobutyl]-1,2-dihydrospiro[indole-3,4′-piperidin]-1′-yl}carbonyl)-3,3-Difluoropiperidine-1-carbonyl]piperidin-1-yl}pyridin-3-yl)piperidine-2,6-dione] |  |
| < 100 nM | 70 to 85% | CC(C)n1cnc2cc(-c3ccc4c(c3)N([C@H]3C[C@@H](N5CCCCC5)C3)C(=O)C43CCN(C(=O)C4(C)CCN(C(=O)C5CCN(c6ccc(C7CCC(=O)NC7=O)cc6)CC5)CC4)CC3)nc(NC3CCOCC3)c21 (mixture of isomers) [Example 196, (3RS)-3-[4-(4-{4-methyl-4-[(6-{4-[(oxan-4-yl)amino]-3-(propan-2-yl)-3H-imidazo[4,5-c]pyridin-6-yl}-2-oxo-1-[(1S,3S)-3-(piperidin-1-yl)cyclobutyl]-1,2-dihydrospiro[indole-3,4′-piperidin]-1′-yl)carbonyl]piperidine-1-carbonyl}piperidin-1-yl)phenyl]piperidine-2,6-dione] |  |

— patent US12091426B2, “Bifunctional degraders of hematopoietic progenitor kinase and therapeutic uses thereof” (Nurix Therapeutics, Inc., priority 2021, dated 2024)
